# Activity calls are given as the source filed them. No cut-off for these calls is given here.
# Experiments:
# [1] = Induction of chromosome damage in BRCA2 deficient Chinese hamster V-C8 cells assessed as number of radials per 100 metaphases at 2 nM for 1 hr followed by post incubation in drug-free media for 24 hrs; format: cell-based, Cricetulus griseus; conditions: v-c8, 1 h, 0.002 µM
# [2] = Induction of chromosome damage in BRCA2 deficient Chinese hamster V-C8 cells assessed as number of radials per 100 metaphases at 5 nM for 1 hr followed by post incubation in drug-free media for 24 hrs; format: functional, Cricetulus griseus
# [3] = Induction of chromosome damage in BRCA2 deficient Chinese hamster V-C8 cells assessed as number of radials per 100 metaphases at 10 nM for 1 hr followed by post incubation in drug-free media for 24 hrs; format: functional, Cricetulus griseus
# [4] = test system: CCRF-CEM; experiment: Induction of DNA double strand breaks in human CEM cells at 100 nM by alkaline comet assay; format: functional, cell-based
# [5] = test system: HeLa; experiment: Reduction of DNA synthesis in human HeLa cells at 30 nM after 1 hrs […]; format: functional; parameters: scale not given: the % may be the effect or the level left
# [6] = test system: HeLa; experiment: Reduction of cellular viability in human HeLa cells at 20 nM after 1 hr by MTT assay; format: functional
# [7] = test system: HeLa; experiment: Induction of DNA double strand breaks in human HeLa cells after 1 hr by neutral comet assay; format: functional, cell-based
# [8] = test system: CHO-AA8; experiment: Induction of DNA double strand breaks in Chinese hamster AA8 cells assessed as phosphorylated histone H2AX formation after 1 hr by immunostaining; format: functional, cell-based; conditions: Cricetulus griseus
# [9] = test system: HeLa; experiment: Induction of DNA double strand breaks in human HeLa cells assessed as phosphorylated histone H2AX formation after 1 hr by immunostaining; format: functional, cell-based
# [10] = test system: CCRF-CEM; experiment: Induction of DNA double strand breaks in human CEM cells assessed as phosphorylated histone H2AX formation after 1 hr by immunostaining; format: functional, cell-based
# [11] = test system: Lymphocyte; experiment: Induction of DNA double strand breaks in nonproliferating human lymphocytes at 100 nM by alkaline comet assay; format: functional, cell-based
# [12] = test system: HeLa; experiment: Reversal of induction of DNA double strand breaks in human HeLa cells at >50 nM in presence of aphidicolin after 1 hr by neutral comet assay; format: functional, cell-based
# [13] = test system: HeLa; experiment: Induction of DNA double strand breaks in human S-phase synchronized HeLa cells by alkaline comet assay; format: functional, cell-based
# [14] = Cytotoxicity in homologous recombination repair XRCC3 gene deficient Chinese hamster irs1SF cells assessed as cell viability by MTT assay relative to wild type cells; format: functional, Cricetulus griseus
# [15] = Cytotoxicity in homologous recombination repair BRCA2 gene deficient Chinese hamster V-C8 cells assessed as cell viability by MTT assay relative to wild type cells; format: functional, Cricetulus griseus
# [16] = Cytotoxicity in homologous recombination repair RAD51C gene deficient Chinese hamster CL-V4B cells assessed as cell viability by MTT assay relative to wild type cells; format: functional, Cricetulus griseus
# [17] = Cytotoxicity in homologous recombination repair XRCC2 gene deficient Chinese hamster irs1 cells assessed as cell viability by MTT assay relative to wild type cells; format: functional, Cricetulus griseus
# [18] = Effect on cell cycle progression in Chinese hamster homologous recombination repair XRCC3 gene deficient irs1SF cells assessed as increase in accumulation at S phase at 6 nM for 1 hr followed by post incubation in drug-free media for 6 hrs relative to control; format: functional, Cricetulus griseus
# [19] = Effect on cell cycle progression in Chinese hamster homologous recombination repair XRCC3 gene deficient irs1SF cells assessed as increase in accumulation at G2/M phase at 6 nM for 1 hr followed by post incubation in drug-free media for 24 hrs relative to control; format: functional, Cricetulus griseus
# [20] = Induction of chromosome damage in BRCA2 deficient Chinese hamster V-C8 cells assessed as number of damaged chromosomes per 100 metaphases at 2 nM for 1 hr followed by post incubation in drug-free media for 24 hrs; format: functional, Cricetulus griseus
# [21] = Induction of chromosome damage in BRCA2 deficient Chinese hamster V-C8 cells assessed as number of damaged chromosomes per 100 metaphases at 5 nM for 1 hr followed by post incubation in drug-free media for 24 hrs; format: functional, Cricetulus griseus
# [22] = Induction of chromosome damage in BRCA2 deficient Chinese hamster V-C8 cells assessed as number of damaged chromosomes per 100 metaphases at 100 nM for 1 hr followed by post incubation in drug-free media for 24 hrs; format: functional, Cricetulus griseus
# [23] = Induction of chromosome damage in BRCA2 deficient Chinese hamster V-C8 cells assessed as number of radials per 100 metaphases at 1 nM for 1 hr followed by post incubation in drug-free media for 24 hrs; format: functional, Cricetulus griseus
# [24] = test system: CHO-AA8; experiment: Effect on cell cycle progression in Chinese hamster AA8 cells assessed as accumulation at G2 phase at 140 nM; format: functional, cell-based; conditions: Cricetulus griseus
# [25] = test system: CHO-AA8; experiment: Effect on cell cycle progression in Chinese hamster AA8 cells assessed as increase in accumulation at G2/M phase at 6 nM for 1 hr followed by post incubation in drug-free media for 6 hrs relative to control; format: functional, cell-based; conditions: Cricetulus griseus
# [26] = test system: CHO-AA8; experiment: Effect on cell cycle progression in Chinese hamster AA8 cells assessed as accumulation at S phase at 140 nM; format: functional, cell-based; conditions: Cricetulus griseus
# [27] = Effect on cell cycle distribution in Chinese hamster homologous recombination repair XRCC3 gene deficient irs1SF cells after 1 hr followed by post incubation in drug-free media; format: functional, Cricetulus griseus
# [28] = test system: CHO-AA8; experiment: Effect on cell cycle distribution in Chinese hamster AA8 cells assessed as isotoxic dose after 1 hr; format: functional, Cricetulus griseus
# [29] = test system: CHO-AA8; experiment: Induction of DNA double strand breaks in Chinese hamster AA8 cells at 100 nM after 1 hr by comet assay; format: functional, Cricetulus griseus
# [30] = Induction of DNA double strand breaks in Chinese hamster homologous recombination repair XRCC3 gene deficient irs1SF cells at 100 nM after 1 hr by comet assay; format: functional, Cricetulus griseus
# [31] = test system: V79; experiment: Induction of chromosome damage in Chinese hamster V79 cells assessed as number of damaged chromosomes per 100 metaphases at 10 nM for 1 hr followed by post incubation in drug-free media for 24 hrs; format: functional, Cricetulus griseus
# [32] = test system: V79; experiment: Induction of chromosome damage in Chinese hamster V79 cells assessed as number of damaged chromosomes per 100 metaphases at 50 nM for 1 hr followed by post incubation in drug-free media for 24 hrs; format: functional, Cricetulus griseus
# [33] = test system: V79; experiment: Induction of chromosome damage in Chinese hamster V79 cells assessed as number of damaged chromosomes per 100 metaphases at 100 nM for 1 hr followed by post incubation in drug-free media for 24 hrs; format: functional, Cricetulus griseus
# [34] = test system: V79; experiment: Induction of chromosome damage in Chinese hamster V79 cells assessed as number of radials per 100 metaphases at 10 nM for 1 hr followed by post incubation in drug-free media for 24 hrs; format: functional, Cricetulus griseus
# [35] = test system: V79; experiment: Induction of chromosome damage in Chinese hamster V79 cells assessed as number of radials per 100 metaphases at 50 nM for 1 hr followed by post incubation in drug-free media for 24 hrs; format: functional, Cricetulus griseus
# [36] = test system: V79; experiment: Induction of chromosome damage in Chinese hamster V79 cells assessed as number of radials per 100 metaphases at 100 nM for 1 hr followed by post incubation in drug-free media for 24 hrs; format: functional, Cricetulus griseus
# [37] = Induction of chromosome damage in BRCA2 deficient Chinese hamster V-C8 cells assessed as number of damaged chromosomes per 100 metaphases at 1 nM for 1 hr followed by post incubation in drug-free media for 24 hrs; format: functional, Cricetulus griseus
smiles,measurement,setting,value
COc1cc2c(cc1O)CCN[C@]21CS[C@@H]2c3c(OC(C)=O)c(C)c4c(c3[C@H](COC1=O)N1[C@@H]2[C@H]2c3c(cc(C)c(OC)c3O)C[C@@H]([C@@H]1O)N2C)OCO4 [TRABECTEDIN],Activity,[1],1
same,Activity,[2],2
same,Activity,[3],3
same,Activity,[4],Active
same,Activity,[5],50%
same,Activity,[6],50%
same,Activity,[7],Dose-dependent effect
same,Activity,[8],Active
same,Activity,[9],Active
same,Activity,[10],Active
same,Activity,[11],inactive
same,Activity,[12],Active
same,Activity,[13],Toxic
same,Fold change,[14],23
same,Fold change,[15],18
same,Fold change,[16],8
same,Fold change,[17],8
same,Activity,[18],65%
same,Activity,[19],35%
same,Activity,[20],42
same,Activity,[21],90
same,Activity,[22],100
same,Activity,[23],1
same,Activity,[24],Active
same,Activity,[25],inactive
same,Activity,[26],Active
same,IC50,[27],6 nM
same,Activity,[28],140 nM
same,Activity,[29],20%
same,Activity,[30],19%
same,Activity,[31],1
same,Activity,[32],50
same,Activity,[33],57
same,Activity,[34],0
same,Activity,[35],27
same,Activity,[36],24
same,Activity,[37],14
